Experiments:
[1] = target: GST-tagged GDP-loaded KRAS G12D (amin acids 1-188) (Homo sapiens, UniProt P01116, G12D); assay: KRAS G12D probe displacement assay (TR-FRET); type: binding; settings: Table 5; KRAS G12D 0.5 nM, biotinylated probe 2 4 nM
Protocol: Plates are incubated at 24° C. for 1 hr.

[2] = tested on: pERK1/2(THR202/TYR204) level in SW620 cell line; assay: KRAS G12V pERK assay in SW620 cells (HTRF); type: cell-based; settings: Homo sapiens, SW-620, Table 4, 2 hrs compound treatment
How it was run: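 SW620 cells were treated for 2 h with a 10-point dilution series (final 0–10 μM) after overnight seeding. Lysates were then incubated overnight at room temperature with Eu3+-cryptate and acceptor anti-phospho-ERK1/2 antibodies, and HTRF was read at 655 nm. IC50 was fitted from percent inhibition versus log concentration.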

[3] = tested on: pERK1/2(THR202/TYR204) level in AsPC-1 cell line; assay: KRAS G12D pERK assay in AsPC-1 cells (HTRF); type: cell-based; settings: Homo sapiens, ASPC1, Table 5, 2 h compound treatment
Protocol: AsPC-1 cell line was used in this study. Cells were maintained in RPMI-1640 supplemented with 10% fetal bovine serum (Thermo Fisher), 50 units/ml, penicillin and streptomycin (Thermo Fisher) and kept at 37° C. in a humidified atmosphere of 5% CO2 in air. Cells were reinstated from frozen stocks that were laid down within 30 passages from the original cells purchased. 30000 cells per well were seeded into a 96-well plate and incubated overnight. Cells were treated with a 10-point dilution series. The final compound concentration is from 0 to 10 μM. After 2 h compound treatment, cells were lysed, and the pERK1/2(THR202/TYR204) level in the cell lysates was detected by HTRF kit (Cisbio). In brief, a total of 16 μL of cell lysate from each well of a 96-well plate was transferred to a 384-well white assay plate. Lysate from each well was incubated with 2 μL of Eu3+-cryptate (donor) labeled anti-phospho-ERK1/2 and 2 μL of D2 (acceptor) labeled anti-phospho-ERK1/2 antibodies (Cisbio) overnight in dark at room temperature. When the donor and acceptor are in close proximity, excitation of the donor with laser triggers a Fluorescence Resonance Energy Transfer (FRET) towards the acceptor, which in turn fluoresces at 655 nm wavelength. FRET signals were measured using a PHERAstar FSX reader (BMG Labtech). IC50 determination was performed by fitting the curve of percent inhibition versus the log of the inhibitor concentration using Dotmatics.

[4] = target: GST-tagged GDP-loaded KRAS G12V (amino acids 1-169) (Homo sapiens, UniProt P01116, G12V); assay: KRAS G12V probe displacement assay (TR-FRET); type: binding; settings: Table 4; KRAS G12V 2 nM, biotinylated probe 2 2.5 nM
GST-tagged GDP-loaded KRAS G12V (amino acids 1-169), sequence (P01116 1-169 isoform P01116-2 G12V): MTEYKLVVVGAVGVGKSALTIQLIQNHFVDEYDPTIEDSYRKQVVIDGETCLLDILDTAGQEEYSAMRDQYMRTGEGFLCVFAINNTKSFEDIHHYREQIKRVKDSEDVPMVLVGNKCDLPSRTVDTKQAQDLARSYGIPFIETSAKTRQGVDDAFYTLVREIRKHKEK
Protocol: Plates are incubated at 24 °C for 1 hr. […] After 1 hr incubation at 24° C.

GST-tagged GDP-loaded KRAS G12D (amin acids 1-188), sequence (P01116 1-188 isoform P01116-2 G12D): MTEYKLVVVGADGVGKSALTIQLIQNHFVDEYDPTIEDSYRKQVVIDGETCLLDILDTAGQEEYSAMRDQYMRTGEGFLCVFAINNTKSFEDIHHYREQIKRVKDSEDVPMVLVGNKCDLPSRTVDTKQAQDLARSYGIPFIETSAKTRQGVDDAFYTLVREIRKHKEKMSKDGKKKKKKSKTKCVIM

Row | SMILES | IC50 [1] [nM] | IC50 [2] [nM] | IC50 [3] [nM] | IC50 [4] [nM]
1 | Cc1cc(N)cc(-c2nc3c4c(nc(OC[C@]56CCC[C@H]5N(C)CCC6)nc4c2F)N(C)[C@H]2CCOC[C@@H]2O3)c1C(F)(F)F [Example 65, 3-((7aR,11aS)-4-fluoro-12-methyl-2-(((4aS,7aR)-1-methyloctahydro-4aH-cyclopenta[b]pyridin-4a-yl)methoxy)-7a, 8,10,11,11a, 12-hexahydro-7,9-dioxa-1,3,6,12-tetraazapleiaden-5-yl)-5-methyl-4-(trifluoromethyl)aniline] | 0.27 | 8.9 | 17 | 0.47
2 | CCN1c2nc(OC[C@@]34CCCN3C[C@H](F)C4)nc3c(F)c(-c4cc(N)cc(Cl)c4C(F)(F)F)nc(c23)OCCC12COC2 [Example 35, 3-chloro-5-(11-ethyl-4-fluoro-2-(((2R,7aS)-2-fluorotetrahydro-1H-pyrrolizin-7a(5H)-yl)methoxy)-8,9-dihydro-11H-7-oxa-1,3,6,11-tetraazaspiro[cycloocta[de]naphthalene-10,3′-oxetan]-1(11a), 2,3a, 3a^1(6a), 5-pentaen-5-yl)-4-(trifluoromethyl)aniline] | 0.33 | 26 | 22 | 0.47
3 | CN1c2nc(OC[C@@]34CCCN3C[C@H](F)C4)nc3c(F)c(-c4cc(N)cc(Cl)c4C(F)(F)F)nc(c23)OC[C@@H]2COC[C@H]21 (single isomer, unassigned) [Example 68 Isomer 2] | 0.14 | 1.4 | 6.9 | 0.51
4 | C=C1CN2CCC[C@@]2(COc2nc3c4c(nc(-c5cc(N)cc(Cl)c5C(F)(F)F)c(F)c4n2)O[C@H]2COCC[C@@H]2N3C)C1 [Example 62, 3-chloro-5-((7aR,11aS)-4-fluoro-12-methyl-2-(((S)-2-methylenetetrahydro-1H-pyrrolizin-7a(5H)-yl)methoxy)-7a, 8,10,11,11a, 12-hexahydro-7,9-dioxa-1,3,6,12-tetraazapleiaden-5-yl)-4-(trifluoromethyl)aniline] | 0.23 | 5.5 | 12 | 0.25
5 | CN1c2nc(OC[C@@]34CCCN3C[C@H](F)C4)nc3c(F)c(-c4cc(N)cc(Cl)c4C(F)(F)F)nc(c23)OCCC12CC2 [Example 31, 3-chloro-5-(4-fluoro-2-(((2R,7aS)-2-fluorotetrahydro-1H-pyrrolizin-7a(5H)-yl)methoxy)-11-methyl-8,9-dihydro-11H-7-oxa-1,3,6,11-tetraazaspiro[cycloocta[de]naphthalene-10,1′-cyclopropan]-1(11a), 2,3a, 4,6-pentaen-5-yl)-4 (trifluoromethyl)aniline] | 0.43 | 32 | 40 | 0.51
6 | CN1CCC[C@@]2(COc3nc4c5c(nc(-c6cc(N)cc(Cl)c6C(F)(F)F)c(F)c5n3)O[C@H]3COCC[C@@H]3N4C)CCC[C@@H]12 [Example 64, 3-chloro-5-((7aR,11aS)-4-fluoro-12-methyl-2-(((4aS,7aR)-1-methyloctahydro-4aH-cyclopenta[b]pyridin-4a-yl)methoxy)-7a, 8,10,11,11a, 12-hexahydro-7,9-dioxa-1,3,6,12-tetraazapleiaden-5-yl)-4-(trifluoromethyl)aniline] | 0.1 | 6.4 | 7.9 | 0.25

— patent US20240262848A1, “HETEROCYCLIC COMPOUNDS, COMPOSITIONS THEREOF, AND METHODS OF TREATMENT THEREWITH” (BeiGene, Ltd., priority 2022, published 2024)
